Assay results: ChEMBL document CHEMBL1142271, “New fused benzazepine as selective D3 receptor antagonists. Synthesis and biological evaluation. Part one: [h]-fused tricyclic systems” (Bioorg Med Chem Lett, 2008)

Legend:
Format in all cases: ADME, organism-based
[1] = Oral bioavailability in rat; conditions: in vivo
[2] = Volume of distribution in rat; conditions: in vivo
[3] = Blood clearance in rat; conditions: whole blood
[4] = Half life in rat; conditions: in vivo
[5] = Ratio of drug level brain to blood in iv dosed rat after 1 hr; conditions: read-out: BBR

| SMILES | bioavailability [1] [%] | Vd [2] [L/kg] | clearance [3] [mL/min/kg] | half-life [4] [h] | Kp at 1 h [5] |
| --- | --- | --- | --- | --- | --- |
| Cc1ccc2c(-c3nnc(SCCCN4CCc5cc6nc(N7CCCCC7)oc6cc5CC4)n3C)cccc2n1 | 3 |  | 76 |  | 5.1 |
| Cc1ccc2c(-c3nnc(SCCCN4CCc5cc6nc(C(C)C)oc6cc5CC4)n3C)cccc2n1 |  |  | 81 |  |  |
| Cc1ncoc1-c1nnc(SCCCN2CCc3cc4nc(C(C)C)oc4cc3CC2)n1C |  |  | 152 |  |  |
| Cc1ccc2c(-c3nnc(SCCCN4CCc5cc6nc(C)oc6cc5CC4)n3C)cccc2n1 | 34 | 4.31 | 47 | 1.7 | 5.4 |
| CCc1nc2cc3c(cc2o1)CCN(CCCSc1nnc(-c2cccc4nc(C)ccc24)n1C)CC3 | 31 | 5.1 | 57 | 1.6 |  |
| Cc1ccc2c(-c3nnc(SCCCN4CCc5cc6nc(C(F)(F)F)oc6cc5CC4)n3C)cccc2n1 | 31 | 5 | 20 | 3.3 | 2.8 |
| CCCc1nc2cc3c(cc2o1)CCN(CCCSc1nnc(-c2cccc4nc(C)ccc24)n1C)CC3 | 6 |  | 62 |  |  |
| Cc1ccc2c(-c3nnc(SCCCN4CCc5cc6nc(C(C)(C)C)oc6cc5CC4)n3C)cccc2n1 |  |  | 137 |  |  |

Second part, the compound after the results:

| bioavailability [1] [%] | Vd [2] [L/kg] | clearance [3] [mL/min/kg] | half-life [4] [h] | Kp at 1 h [5] | SMILES |
| --- | --- | --- | --- | --- | --- |
| 32 | 1.7 | 26 |  |  | Cc1ncoc1-c1nnc(SCCCN2CCc3cc4nc(CC5CC5)oc4cc3CC2)n1C |
| 45 | 2.8 | 29 | 1.6 | 1.1 | Cc1ccc2c(-c3nnc(SCCCN4CCc5cc6nc(N(C)C)oc6cc5CC4)n3C)cccc2n1 |
| 22 | 3.3 | 40 | 1.3 | 7.7 | Cc1ccc2c(-c3nnc(SCCCN4CCc5cc6onc(C)c6cc5CC4)n3C)cccc2n1 |
| 17 | 3.4 | 48 | 1.1 | 3.1 | CCc1nc2cc3c(cc2o1)CCN(CCCSc1nnc(-c2ccc(C(F)(F)F)cc2)n1C)CC3 |
| 25 | 4.3 | 34 | 2.2 | 4.4 | Cc1ccc2c(-c3nnc(SCCCN4CCc5cc6nc(C)sc6cc5CC4)n3C)cccc2n1 |
|  | 2.4 | 32 | 1.2 | 0.2 | Cc1ccc2c(-c3nnc(SCCCN4CCc5cc6c(cc5CC4)N(S(C)(=O)=O)CCO6)n3C)cccc2n1 |
| 10 | 3.5 | 36 | 1.5 | 0.2 | Cc1ccc2c(-c3nnc(SCCCN4CCc5cc6c(cc5CC4)C(=O)N(C(C)C)C6)n3C)cccc2n1 |
| 25 | 4.3 | 50 |  |  | Cc1ccc2c(-c3nnc(SCCCN4CCc5cc6nc(CC7CC7)oc6cc5CC4)n3C)cccc2n1 |
| 17 | 5.4 | 62 | 1.5 | 2.9 | Cc1nc2cc3c(cc2o1)CCN(CCCSc1nnc(-c2ccc(C(F)(F)F)cc2)n1C)CC3 |
